Results as given in US20250002507A1, “7,8-DIHYDRO-5H-1,6-NAPHTHYRIDINE DERIVATIVES AS POSITIVE ALLOSTERIC MODULATORS OF THE MUSCARINIC ACETYLCHOLINE RECEPTOR M4 FOR TREATING NEUROLOGICAL AND PSYCHIATRIC DISORDERS” (Vanderbilt University, priority 2021, published 2025).

Molecular target: T1, Human M4 (Homo sapiens, UniProt P08173)
T1 construct: expressed in transfected cells
T1 sequence (P08173 1-479): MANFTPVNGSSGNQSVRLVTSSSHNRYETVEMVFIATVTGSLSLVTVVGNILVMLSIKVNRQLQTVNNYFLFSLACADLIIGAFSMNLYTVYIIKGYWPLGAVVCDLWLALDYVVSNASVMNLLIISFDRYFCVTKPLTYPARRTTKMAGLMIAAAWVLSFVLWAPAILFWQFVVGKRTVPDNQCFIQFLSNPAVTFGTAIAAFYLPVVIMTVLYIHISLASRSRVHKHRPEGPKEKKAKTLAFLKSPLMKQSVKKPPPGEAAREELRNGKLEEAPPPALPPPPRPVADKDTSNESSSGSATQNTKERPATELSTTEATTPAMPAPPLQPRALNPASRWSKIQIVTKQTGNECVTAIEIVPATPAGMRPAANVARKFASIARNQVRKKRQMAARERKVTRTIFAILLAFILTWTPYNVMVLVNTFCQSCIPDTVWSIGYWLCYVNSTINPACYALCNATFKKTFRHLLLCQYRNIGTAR
Assay: mAChR M4 cell-based functional assay (calcium flux, potentiation of EC20 acetylcholine response), hM4-Gqi5 CHO-K1 cells
Settings: Table 3; for Emax at 30 µM: CHO-K1, Human M4, % ACh maximum at 30 μM, read-out: Emax (% ACh maximum at 30 μM); for EC50: potentiation of EC20 acetylcholine response, calcium flux, CHO-K1 cells, read-out: Human M4 EC50
How it was run: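 CHO-K1 cells stably expressing human M4 with chimeric Gqi5, loaded with Fluo-4 AM 50 min at 37 °C; calcium flux read by FDSS. 11-point 1:3 compound curves added, then EC20 acetylcholine at 144 s; potentiation of the EC20 response fitted by four-parameter logistic to give EC50 and Emax.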

Row | Compound | Emax at 30 µM [%] | EC50 [nM]
1 | Cc1c(N2CCc3ncc(-c4ccc(N(C)C)nc4)cc3C2)nn2cnnc2c1C [Compound 180, 5-(6-(7,8-dimethyl-[1,2,4]triazolo[4,3-b]pyridazin-6-yl)-5,6,7,8-tetrahydro-1,6-naphthyridin-3-yl)-N,N-dimethylpyridin-2-amine] | 74 | 284
2 | Cc1c(N2CCc3ncc(-c4cc(F)cnc4Cl)cc3C2)nn2cnnc2c1C [Compound 181, 3-(2-chloro-5-fluoropyridin-3-yl)-6-(7,8-dimethyl-[1,2,4]triazolo[4,3-b]pyridazin-6-yl)-5,6,7,8-tetrahydro-1,6-naphthyridine] | 95 | 539
3 | Cc1c(N2CCc3ncc(-c4cccnc4OC(C)C)cc3C2)nn2cnnc2c1C [Compound 182, 6-(7,8-dimethyl-[1,2,4]triazolo[4,3-b]pyridazin-6-yl)-3-(2-isopropoxypyridin-3-yl)-5,6,7,8-tetrahydro-1,6-naphthyridine] | 42 | 1100
4 | Cc1c(N2CCc3ncc(-c4cccnc4F)cc3C2)nn2cnnc2c1C [Compound 183, 6-(7,8-dimethyl-[1,2,4]triazolo[4,3-b]pyridazin-6-yl)-3-(2-fluoropyridin-3-yl)-5,6,7,8-tetrahydro-1,6-naphthyridine] | 93 | 695
5 | CC(=O)c1cnc2c(c1)CN(c1nn3cnnc3c(C)c1C)CC2 [Compound 184, 1-(6-(7,8-dimethyl-[1,2,4]triazolo[4,3-b]pyridazin-6-yl)-5,6,7,8-tetrahydro-1,6-naphthyridin-3-yl)ethan-1-one] | 96 | 704
6 | Cc1c(N2CCc3ncc(-c4ccc(N5CCCCC5)nc4)cc3C2)nn2cnnc2c1C [Compound 185, 6-(7,8-dimethyl-[1,2,4]triazolo[4,3-b]pyridazin-6-yl)-3-(6-(piperidin-1-yl)pyridin-3-yl)-5,6,7,8-tetrahydro-1,6-naphthyridine] | 86 | 333
7 | Cc1c(N2CCc3ncc(-c4ccc(N5CCOCC5)nc4)cc3C2)nn2cnnc2c1C [Compound 186, 4-(5-(6-(7,8-dimethyl-[1,2,4]triazolo[4,3-b]pyridazin-6-yl)-5,6,7,8-tetrahydro-1,6-naphthyridin-3-yl)pyridin-2-yl)morpholine] | 100 | 142
8 | Cc1c(N2CCc3ncc(-c4ccc(N5CCN(C)CC5)nc4)cc3C2)nn2cnnc2c1C [Compound 187, 6-(7,8-dimethyl-[1,2,4]triazolo[4,3-b]pyridazin-6-yl)-3-(6-(4-methylpiperazin-1-yl)pyridin-3-yl)-5,6,7,8-tetrahydro-1,6-naphthyridine] | 104 | 63
9 | Cc1cc2nccn2nc1N1CCc2ncc(C(F)(F)F)cc2C1 [Compound 188, 6-(7-methylimidazo[1,2-b]pyridazin-6-yl)-3-(trifluoromethyl)-5,6,7,8-tetrahydro-1,6-naphthyridine] | 69 | 523
10 | Cc1c(N2CCc3ncc(C(F)F)cc3C2)nn2cnnc2c1C [Compound 189, 3-(difluoromethyl)-6-(7,8-dimethyl-[1,2,4]triazolo[4,3-b]pyridazin-6-yl)-5,6,7,8-tetrahydro-1,6-naphthyridine] | 103 | 90
11 | Cc1c(N2CCc3ncc(-c4ccc(-n5cccn5)nc4)cc3C2)nn2cnnc2c1C [Compound 191, 3-(6-(1H-pyrazol-1-yl)pyridin-3-yl)-6-(7,8-dimethyl-[1,2,4]triazolo[4,3-b]pyridazin-6-yl)-5,6,7,8-tetrahydro-1,6-naphthyridine] | 66 | 342
12 | Cc1c(N2CCc3ncc(-c4ccc(-n5ccnc5)nc4)cc3C2)nn2cnnc2c1C [Compound 192, 3-(6-(1H-imidazol-1-yl)pyridin-3-yl)-6-(7,8-dimethyl-[1,2,4]triazolo[4,3-b]pyridazin-6-yl)-5,6,7,8-tetrahydro-1,6-naphthyridine] | 72 | 281
13 | Cc1c(N2CCc3ncc(C4CC4)cc3C2)nn2cnnc2c1C [Compound 200, 3-cyclopropyl-6-(7,8-dimethyl-[1,2,4]triazolo[4,3-b]pyridazin-6-yl)-5,6,7,8-tetrahydro-1,6-naphthyridine] | 93 | 53
14 | Cc1c(N2CCc3ncc(Nc4ccnn4C)cc3C2)nn2c(C(F)(F)F)nnc2c1C [Compound 201, 6-(7,8-dimethyl-3-(trifluoromethyl)-[1,2,4]triazolo[4,3-b]pyridazin-6-yl)-N-(1-methyl-1H-pyrazol-5-yl)-5,6,7,8-tetrahydro-1,6-naphthyridin-3-amine] | 94 | 63
15 | Cc1cc2nncn2nc1N1CCc2ncc(Nc3nn(C)c4ccccc34)cc2C1 [Compound 204, N-(1-methyl-1H-indazol-3-yl)-6-(7-methyl-[1,2,4]triazolo[4,3-b]pyridazin-6-yl)-5,6,7,8-tetrahydro-1,6-naphthyridin-3-amine] | 62 | 3550
16 | Cc1cc2nncn2nc1N1CCc2ncc(N3CCCn4nccc43)cc2C1 [Compound 206, 3-(6,7-dihydropyrazolo[1,5-a]pyrimidin-4(5H)-yl)-6-(7-methyl-[1,2,4]triazolo[4,3-b]pyridazin-6-yl)-5,6,7,8-tetrahydro-1,6-naphthyridine] | 96 | 53
17 | Cc1c(N2CCc3ncc(-c4ccc(N5CCCC5)nc4)cc3C2)nn2cnnc2c1C [Compound 207, 6-(7,8-dimethyl-[1,2,4]triazolo[4,3-b]pyridazin-6-yl)-3-(6-(pyrrolidin-1-yl)pyridin-3-yl)-5,6,7,8-tetrahydro-1,6-naphthyridine] | 73 | 401

Second part, the compound after the results:

Row | Emax at 30 µM [%] | EC50 [nM] | Compound
18 | 102 | 234 | Cc1cc2nncn2nc1N1CCc2ncc(Nc3ccnn3C)cc2C1 [Compound 190, N-(1-methyl-1H-pyrazol-5-yl)-6-(7-methyl-[1,2,4]triazolo[4,3-b]pyridazin-6-yl)-5,6,7,8-tetrahydro-1,6-naphthyridin-3-amine]
19 | 93 | 94 | Cc1cc2nncn2nc1N1CCc2ncc(-c3ccns3)cc2C1 [Compound 193, 5-(6-(7-methyl-[1,2,4]triazolo[4,3-b]pyridazin-6-yl)-5,6,7,8-tetrahydro-1,6-naphthyridin-3-yl)isothiazole]
20 | 88 | 292 | Cc1ncc(-c2cnc3c(c2)CN(c2nn4cnnc4cc2C)CC3)s1 [Compound 194, 2-methyl-5-(6-(7-methyl-[1,2,4]triazolo[4,3-b]pyridazin-6-yl)-5,6,7,8-tetrahydro-1,6-naphthyridin-3-yl)thiazole]
21 | 89 | 200 | Cc1nc(C)c(-c2cnc3c(c2)CN(c2nn4cnnc4cc2C)CC3)s1 [Compound 195, 2,4-dimethyl-5-(6-(7-methyl-[1,2,4]triazolo[4,3-b]pyridazin-6-yl)-5,6,7,8-tetrahydro-1,6-naphthyridin-3-yl)thiazole]
22 | 80 | 708 | Cc1cc2nncn2nc1N1CCc2ncc(-c3ccc(C(F)(F)F)nc3)cc2C1 [Compound 196, 6-(7-methyl-[1,2,4]triazolo[4,3-b]pyridazin-6-yl)-3-(6-(trifluoromethyl)pyridin-3-yl)-5,6,7,8-tetrahydro-1,6-naphthyridine]
23 | 82 | 176 | Cc1cc2nncn2nc1N1CCc2ncc(-c3ccc(C4CC4)nc3)cc2C1 [Compound 197, 3-(6-cyclopropylpyridin-3-yl)-6-(7-methyl-[1,2,4]triazolo[4,3-b]pyridazin-6-yl)-5,6,7,8-tetrahydro-1,6-naphthyridine]
24 | 93 | 206 | Cc1ccc(-c2cnc3c(c2)CN(c2nn4cnnc4cc2C)CC3)cn1 [Compound 198, 6-(7-methyl-[1,2,4]triazolo[4,3-b]pyridazin-6-yl)-3-(6-methylpyridin-3-yl)-5,6,7,8-tetrahydro-1,6-naphthyridine]
25 | 84 | 334 | Cc1cc2nncn2nc1N1CCc2ncc(-c3cccnc3)cc2C1 [Compound 199, 6-(7-methyl-[1,2,4]triazolo[4,3-b]pyridazin-6-yl)-3-(pyridin-3-yl)-5,6,7,8-tetrahydro-1,6-naphthyridine]
26 | 95 | 227 | COc1ccc(-c2cnc3c(c2)CN(c2nn4cnnc4cc2C)CC3)cn1 [Compound 202, 3-(6-methoxypyridin-3-yl)-6-(7-methyl-[1,2,4]triazolo[4,3-b]pyridazin-6-yl)-5,6,7,8-tetrahydro-1,6-naphthyridine]
27 | 35 | 82 | Cc1cc2nncn2nc1N1CCc2ncc(Nc3nsc4ncccc34)cc2C1 [Compound 203, N-(6-(7-methyl-[1,2,4]triazolo[4,3-b]pyridazin-6-yl)-5,6,7,8-tetrahydro-1,6-naphthyridin-3-yl)isothiazolo[5,4-b]pyridin-3-amine]
28 | 65 | 477 | Cc1cc2nncn2nc1N1CCc2ncc(Nc3csc4ncccc34)cc2C1 [Compound 205, N-(6-(7-methyl-[1,2,4]triazolo[4,3-b]pyridazin-6-yl)-5,6,7,8-tetrahydro-1,6-naphthyridin-3-yl)thieno[2,3-b]pyridin-3-amine]
